Test results from PubChem BioAssay AID248 (DTP/NCI, 2004).
Where “and” joins values, the source holds several entries; their conditions need not be identical. Identical values can stand only once. Toxic doses and inconclusive results are not listed. Cut-off read from the data, not from the text of the source: active = T/C of 150% or more; inactive = T/C below 125%.

System: L1210 leukemia ip in BDF1 mice, survival T/C
Assay: NCI In Vivo Anticancer Drug Screen. Data for tumor model L1210 Leukemia (intraperitoneal) in B6D2F1 (BDF1) mice
Conditions: endpoint: mean survival time, higher = longer survival
In short: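 Value reflects the ratio of survival in compound-treated mice to survival in vehicle-treated controls, with both groups carrying the same transplanted tumor.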

[1] = dose: 100.0 mg/kg/injection, schedule: Q01DX009 (ip), vehicle: saline
[2] = dose: 100.0 mg/kg/injection, schedule: Q04DX003 (ip), vehicle: saline
[3] = dose: 200.0 mg/kg/injection, schedule: Q01DX009 (ip), vehicle: saline
[4] = dose: 200.0 mg/kg/injection, schedule: Q04DX003 (ip), vehicle: saline
[5] = dose: 25.0 mg/kg/injection, schedule: Q01DX009 (ip), vehicle: Klucel (hydroxypropylcellulose) (HPC)
[6] = dose: 50.0 mg/kg/injection, schedule: Q01DX009 (ip), vehicle: Klucel (hydroxypropylcellulose) (HPC)
[7] = dose: 100.0 mg/kg/injection, schedule: Q01DX009 (ip), vehicle: Klucel (hydroxypropylcellulose) (HPC)
[8] = dose: 12.5 mg/kg/injection, schedule: Q01DX009 (ip), vehicle: Klucel (hydroxypropylcellulose) (HPC)
[9] = dose: 5.0 mg/kg/injection, schedule: Q01DX001 (ip), vehicle: saline
[10] = dose: 10.0 mg/kg/injection, schedule: Q01DX001 (ip), vehicle: saline
[11] = dose: 20.0 mg/kg/injection, schedule: Q01DX001 (ip), vehicle: saline
[12] = dose: 40.0 mg/kg/injection, schedule: Q01DX001 (ip), vehicle: saline

Measured: T/C

CCCCNC(=O)c1cc(NC(=O)Nc2ccc(C3=NCCN3)cc2)cc(NC(=O)Nc2ccc(C3=NCCN3)cc2)c1
inactive: dose: 8.0 mg/kg/injection, schedule: Q01DX Z (ip), vehicle: carboxymethylcellulose (CMC) 122 % of control | dose: 16.0 mg/kg/injection, schedule: Q01DX Z (ip), vehicle: carboxymethylcellulose (CMC) 117 % of control | dose: 62.0 mg/kg/injection, schedule: Q01DX Z (ip), vehicle: carboxymethylcellulose (CMC) 122 % of control | dose: 125.0 mg/kg/injection, schedule: Q01DX Z (ip), vehicle: carboxymethylcellulose (CMC) 122 % of control | dose: 250.0 mg/kg/injection, schedule: Q01DX Z (ip), vehicle: carboxymethylcellulose (CMC) 110 % of control

[C-]#[N+]CCCCCC
inactive: dose: 3.12 mg/kg/injection, schedule: Q04DX003 (sc), vehicle: olive oil, sesame oil, peanut oil 101 % of control | dose: 4.21 mg/kg/injection, schedule: Q01DX009 (ip), vehicle: olive oil, sesame oil, peanut oil 92 % of control | dose: 6.25 mg/kg/injection, schedule: Q04DX003 (sc), vehicle: olive oil, sesame oil, peanut oil 93 % of control | dose: 8.43 mg/kg/injection, schedule: Q01DX009 (sc), vehicle: olive oil, sesame oil, peanut oil 112 % of control | dose: 12.5 mg/kg/injection, schedule: Q04DX003 (sc), vehicle: olive oil, sesame oil, peanut oil 88 % of control | dose: 16.87 mg/kg/injection, schedule: Q01DX009 (sc), vehicle: olive oil, sesame oil, peanut oil 112 % of control | dose: 18.0 mg/kg/injection, schedule: Q04DX003 (sc), vehicle: other 104 % of control | dose: 28.0 mg/kg/injection, schedule: Q04DX003 (sc), vehicle: other 101 % of control | dose: 40.0 mg/kg/injection, schedule: Q04DX003 (sc), vehicle: other 108 % of control | dose: 60.0 mg/kg/injection, schedule: Q04DX003 (sc), vehicle: olive oil, sesame oil, peanut oil 111 % of control | dose: 90.0 mg/kg/injection, schedule: Q04DX003 (sc), vehicle: olive oil, sesame oil, peanut oil 100 % of control | dose: 135.0 mg/kg/injection, schedule: Q04DX003 (sc), vehicle: olive oil, sesame oil, peanut oil 109 % of control

CC12CCC3C(CCC4=CC(=O)C(C(O)(C(F)(F)F)C(F)(F)F)CC43C)C1CC(C(O)(C(F)(F)F)C(F)(F)F)C2=O (centres undefined)
inactive: dose: 100.0 mg/kg/injection, schedule: Q01DX001 (sc), vehicle: steriod suspending solution 97 % of control | dose: 200.0 mg/kg/injection, schedule: Q01DX001 (sc), vehicle: steriod suspending solution 103 % of control | dose: 400.0 mg/kg/injection, schedule: Q01DX001 (sc), vehicle: steriod suspending solution 101 % of control

O=c1ccn2ccccc2n1
inactive: dose: 50.0 mg/kg/injection, schedule: Q01DX009 (ip), vehicle: saline 101 % of control | [1] 99 % of control | [2] 103 % of control | [3] 98 % of control | [4] 109 % of control

CC(c1ccc(-c2ccccc2)cc1)C(Cl)c1ccccc1 (centres undefined)
inactive: dose: 100.0 mg/kg/injection, schedule: Q01DX001 (ip), vehicle: saline with Tween-80 91 % of control | dose: 200.0 mg/kg/injection, schedule: Q01DX001 (ip), vehicle: saline with Tween-80 91 % of control | dose: 400.0 mg/kg/injection, schedule: Q01DX001 (ip), vehicle: saline with Tween-80 93 % of control

CSC1=NCCS1
inactive: [5] 97 % of control | [6] 102 % of control | [7] 105 % of control | dose: 100.0 mg/kg/injection, schedule: Q01DX009 (ip), vehicle: carboxymethylcellulose (CMC) 111 % of control | dose: 200.0 mg/kg/injection, schedule: Q01DX009 (ip), vehicle: carboxymethylcellulose (CMC) 101 % of control

CC[N+](C)(CC)CCOC(=O)C1C2CC3OC(=O)C1C3C2 (centres undefined)
inactive: [2] 108 % of control | [4] 112 % of control

NNC(=O)c1c[nH]c2ccccc2c1=O
inactive: [8] 95 % of control | [5] 90 % of control | [6] 94 % of control

NOC(=O)C1C(c2ccccc2)C1(c1ccccc1)c1ccccc1 (centres undefined)
inactive: dose: 100.0 mg/kg/injection, schedule: Q01DX001 (ip), vehicle: steriod suspending solution 104 % of control | dose: 200.0 mg/kg/injection, schedule: Q01DX001 (ip), vehicle: steriod suspending solution 95 % of control | dose: 400.0 mg/kg/injection, schedule: Q01DX001 (ip), vehicle: steriod suspending solution 117 % of control

O=C(O)CNCc1ccc(Cl)c(Cl)c1
inactive: dose: 75.0 mg/kg/injection, schedule: Q01DX009 (ip), vehicle: saline 100 % of control | [1] 97 % of control and 120 % of control | [2] 96 % of control | dose: 150.0 mg/kg/injection, schedule: Q01DX009 (ip), vehicle: saline 99 % of control | [3] 111 % of control | [4] 102 % of control | dose: 400.0 mg/kg/injection, schedule: Q01DX009 (ip), vehicle: saline 95 % of control | dose: 400.0 mg/kg/injection, schedule: Q04DX003 (ip), vehicle: saline 90 % of control

CC(C)(C)c1cc(C#N)cc(Br)c1O
inactive: dose: 25.0 mg/kg/injection, schedule: Q04DX002 (ip), vehicle: saline with Tween-80 102 % of control | dose: 50.0 mg/kg/injection, schedule: Q04DX002 (ip), vehicle: saline with Tween-80 97 % of control | dose: 100.0 mg/kg/injection, schedule: Q04DX002 (ip), vehicle: saline with Tween-80 97 % of control and 102 % of control

O=C1c2c(c(O)c3ccccc3c2O)C(=O)C2CC=CCC12 (centres undefined)
inactive: dose: 25.0 mg/kg/injection, schedule: Q01DX009 (ip), vehicle: saline with Tween-80 105 % of control | dose: 50.0 mg/kg/injection, schedule: Q01DX009 (ip), vehicle: saline with Tween-80 110 % of control | dose: 100.0 mg/kg/injection, schedule: Q01DX009 (ip), vehicle: saline with Tween-80 104 % of control | dose: 200.0 mg/kg/injection, schedule: Q01DX009 (ip), vehicle: saline with Tween-80 104 % of control | dose: 400.0 mg/kg/injection, schedule: Q01DX009 (ip), vehicle: saline with Tween-80 104 % of control

CN1CCN(C2CCCc3ccccc3C2O)CC1 (centres undefined)
inactive: [9] 109 % of control | [10] 105 % of control | [11] 103 % of control | [12] 103 % of control

Nc1ncnc2c1ncn2C1OC(COC2C(CO)OC(OC(C(=O)O)C(O)C(OP(=O)(O)O)C(O)C(=O)O)C(O)C2O)C(O)C1O (centres undefined)
inactive: dose: 0.25 mg/kg/injection, schedule: Q04DX002 (ip), vehicle: saline + alcohol 91 % of control | dose: 0.5 mg/kg/injection, schedule: Q04DX002 (ip), vehicle: saline + alcohol 94 % of control | dose: 1.0 mg/kg/injection, schedule: Q04DX002 (ip), vehicle: saline + alcohol 98 % of control

CN(C)c1ccc(-c2c3cc(O)c(=O)cc-3oc3cc(O)c(O)cc23)cc1
inactive: dose: 50.0 mg/kg/injection, schedule: Q04DX003 (ip), vehicle: saline with Tween-80 95 % of control | dose: 100.0 mg/kg/injection, schedule: Q04DX003 (ip), vehicle: saline with Tween-80 90 % of control | dose: 200.0 mg/kg/injection, schedule: Q04DX003 (ip), vehicle: saline with Tween-80 87 % of control

Nc1cccc(S(=O)(=O)c2cccc(N)c2)c1
inactive: [7] 100 % of control | dose: 100.0 mg/kg/injection, schedule: Q04DX003 (ip), vehicle: Klucel (hydroxypropylcellulose) (HPC) 97 % of control | dose: 200.0 mg/kg/injection, schedule: Q01DX009 (ip), vehicle: Klucel (hydroxypropylcellulose) (HPC) 94 % of control | dose: 200.0 mg/kg/injection, schedule: Q04DX003 (ip), vehicle: Klucel (hydroxypropylcellulose) (HPC) 94 % of control | dose: 400.0 mg/kg/injection, schedule: Q01DX009 (ip), vehicle: Klucel (hydroxypropylcellulose) (HPC) 92 % of control | dose: 400.0 mg/kg/injection, schedule: Q04DX003 (ip), vehicle: Klucel (hydroxypropylcellulose) (HPC) 94 % of control

Nc1cnnc(N)c1Cl
inactive: [9] 102 % of control | [10] 113 % of control | [11] 104 % of control | [12] 95 % of control

CC(=O)OC(OC(C)=O)c1ccccn1
inactive: dose: 75.0 mg/kg/injection, schedule: Q01DX001 (ip), vehicle: saline 94 % of control | dose: 150.0 mg/kg/injection, schedule: Q01DX001 (ip), vehicle: saline 96 % of control | dose: 300.0 mg/kg/injection, schedule: Q01DX001 (ip), vehicle: saline 93 % of control

ClC1C2c3ccccc3C(C1Cl)[n+]1ccccc12 (centres undefined)
inactive: dose: 6.25 mg/kg/injection, schedule: Q01DX009 (ip), vehicle: Klucel (hydroxypropylcellulose) (HPC) 109 % of control | [8] 98 % of control | [5] 94 % of control | dose: 35.0 mg/kg/injection, schedule: Q01DX009 (ip), vehicle: Klucel (hydroxypropylcellulose) (HPC) 95 % of control
